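Tested at 5 concentrations; 48 h exposure; 96-well plates; endpoints linearly interpolated, else capped at highest concentration. TGI denotes the concentration required for complete inhibition of growth.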
Columns and labels:
Experiment in all cases: inhibition of tumour cell growth, NCI panel, 48 h
[1] = test system: BT-549 breast
[2] = test system: COLO 205 colon
[3] = test system: EKVX NSCLC
[4] = test system: HCC-2998 colon
[5] = test system: HCT-116 colon
[6] = test system: HOP-92 NSCLC
[7] = test system: HT29 colon
[8] = test system: LOX IMVI melanoma
[9] = test system: NCI-H460 lung
[10] = test system: OVCAR-4 ovarian
[11] = test system: PC-3 prostate
[12] = test system: SF-295 CNS
[13] = test system: SF-539 CNS
[14] = test system: SK-MEL-28 melanoma
[15] = test system: SW-620 colon
[16] = test system: U251 CNS
[17] = test system: UACC-257 melanoma
[18] = test system: SK-OV-3 ovarian
[19] = test system: SNB-19 CNS
[20] = test system: T-47D breast

Row | SMILES | TGI [1] [µM] | TGI [2] [µM] | TGI [3] [µM] | TGI [4] [µM] | TGI [5] [µM] | TGI [6] [µM] | TGI [7] [µM] | TGI [8] [µM] | TGI [9] [µM] | TGI [10] [µM] | TGI [11] [µM] | TGI [12] [µM] | TGI [13] [µM] | TGI [14] [µM] | TGI [15] [µM] | TGI [16] [µM] | TGI [17] [µM] | TGI [18] [µM] | TGI [19] [µM] | TGI [20] [µM]
1 | O=c1[nH]c(=O)n(C2OC(CO)C(O)C2O)c2ccsc12 (centres undefined) | > 100 | > 100 | > 100 | > 100 | > 100 | > 100 | > 100 | > 100 | > 100 | > 100 | > 100 | > 100 | > 100 | > 100 | > 100 | > 100 | > 100 | – | – | –
2 | CCCc1c[nH]c(-c2ccc(-c3cc(CCC)c(C=O)[nH]3)s2)c1 | – | – | – | – | 31.9 | – | 18.3 | 27.7 | 16.9 | 35.2 | – | 33.1 | 32.8 | 26.5 | 33.7 | 29.2 | 31.2 | 32.8 | 37 | –
3 | O=C(O)Cc1cccc2c1Oc1ccccc1S2 | – | > 100 | > 100 | > 100 | > 100 | > 100 | > 100 | > 100 | > 100 | > 100 | – | > 100 | > 100 | > 100 | > 100 | > 100 | > 100 | > 100 | > 100 | –
4 | O=C(c1cc2ccccc2o1)N(Cc1ccccc1)c1ccccc1 | – | 35.4 | 78.2 | 46.1 | 31.9 | 44 | 66 | 39 | 78.6 | – | – | > 100 | – | 87 | 32.4 | – | 41.4 | 91.2 | > 100 | –
5 | O=C(O)c1cc2cc(c1)N=Cc1ccccc1OCc1cccc(n1)COc1ccccc1C=N2 | > 25 | > 25 | > 25 | – | > 25 | > 25 | > 25 | – | > 25 | > 25 | > 25 | 22.1 | > 25 | > 25 | > 25 | > 25 | > 25 | > 25 | > 25 | –
6 | CCC1(CCSC(=N)N)C(=O)NC(=O)NC1=O | > 100 | > 100 | > 100 | > 100 | > 100 | > 100 | > 100 | > 100 | > 100 | > 100 | > 100 | > 100 | > 100 | > 100 | > 100 | > 100 | > 100 | > 100 | > 100 | –
7 | COCc1cc2c(cc1/C(=C/[N+](=O)[O-])CS(=O)(=O)c1ccccc1)OCO2 | – | > 100 | > 100 | > 100 | > 100 | > 100 | > 100 | > 100 | > 100 | – | – | > 100 | > 100 | > 100 | > 100 | > 100 | > 100 | > 100 | – | > 100
8 | CC1(C)CC(=O)C2=C(C1)S/C(=C1/SC3=C(S1)C(=O)CC(C)(C)C3)S2 | – | > 251 | > 251 | > 251 | > 251 | > 251 | > 251 | > 251 | > 251 | – | – | > 251 | > 251 | > 251 | > 251 | > 251 | > 251 | > 251 | > 251 | –
9 | O=C(c1ccccc1)c1ccc(OCCOc2ccc(Nc3ccccc3)cc2)cc1 | – | > 100 | > 100 | > 100 | > 100 | 73.5 | – | > 100 | > 100 | 54.8 | – | 93.9 | > 100 | > 100 | > 100 | 57.1 | > 100 | 64.4 | > 100 | –
10 | NNC(=S)N/N=C(/C(=O)Nc1cc(Cl)ccc1Cl)C1C(=O)Nc2ccccc2S1=O (centres undefined) | – | > 100 | > 100 | > 100 | > 100 | > 100 | > 100 | > 100 | > 100 | > 100 | – | > 100 | > 100 | > 100 | > 100 | > 100 | > 100 | > 100 | > 100 | –
11 | CCSC1(SCC)CC(Cc2ccc(OC)cc2)N(C=NC(C)(C)C)C1 (centres undefined) | – | 74.6 | > 100 | 40.2 | 92.8 | 25 | 51.5 | 32.4 | > 100 | > 100 | – | 45.5 | > 100 | 88.4 | 43.1 | 62.7 | 47.5 | 83.6 | > 100 | –

Source: PubChem BioAssay (NCI)
